According to article PMC3229523, “Identification of Lactoferricin B Intracellular Targets Using an Escherichia coli Proteome Chip” (PLoS ONE, 2011):
Ends that are not written are not given here. * marks the point of attachment. Biotin = O=C1N[C@H]2[C@H](CS[C@H]2CCCCC(=O)*)N1

Legend:
NrdB = assay: E. coli proteome chip assay, NrdB; type: binding, E. coli K-12; conditions: NrdB not in the top 153 proteins; 10 nM biotinylated LfcinB
Description: To fabricate the proteome chips, E. coli K-12 proteins were expressed and purified in a high-throughput fashion. The procedure was modified from Chen et al.. Briefly, E. coli protein expression clones fused with a 6×-His tag, provided by Dr. Mori, were first incubated with glass beads (Biospec Products Inc.) in 2× LB medium containing 30 µg/ml chloramphenicol in 96 DeepWell™ plates (Nunc) at 37°C overnight. The overnight cultures were then diluted with 2× LB that contains 30 µg/ml chloramphenicol to the OD595 value of 0.1. When the cells grew to an OD595 value of 0.7–0.9, 500 µM of isopropyl β-D-thiogalactoside (IPTG) was added to induce protein expression at 37°C for ∼3.5 h. The cultures were then harvested by centrifugation at 3220 g for 5 min at 4°C, and the pellets were stored at −80°C before purification. […]
For image processing of chip assay results, Genepix Pro 6.0 was used to align the protein spot of each individual protein and then all aligned protein image signals were exported as a text file. The text file was analyzed by ProCAT [17], a signal normalization method. The relative ability of LfcinB to bind to each protein was estimated by the ratio of the fluorescence intensity of LfcinB to the fluorescence intensity of an anti-His antibody after the normalization. […]

NrdF = assay: Fluorescence polarization assay, NrdF; type: binding, E. coli
Source text: (§1) FP assays, investigations of the binding between two molecules in a homogeneous aqueous environment, were used to validate the identified 153 proteins. […] If a fluorophore only binds to a small molecule, such as peptide, the rotation of the complex is fast and the light emits in a different plane of polarization. Therefore, the degree of polarization is low. However, once a fluorophore binds to a large molecule, the bound complex is stimulated with polarized light. The light emits in the same polarized plane, and the complex is maintained in the same plane of polarization, causing an increase in the degree of polarization [22]–[24]. The amount of molecules binding to a fluorophore influences the degree of polarization. In this study, LfcinB was labeled with DyLight™ 549 as a reference value. Once the protein bound to LfcinB, like a fluorophore binds to a large molecule, a high degree of polarization is expected.
(§2) Before the assays, LfcinB was labeled with DyLight™ 549 and tested proteins were quantified with a Pierce® bicinchoninic acid (BCA™) protein assay (Thermo). To label the LfcinB, DyLight™ 549-NHS ester and LfcinB (68∶1, mole/mole) were mixed in PBS at room temperature for 1 h, a D-Salt™ polyacrylamide desalting column (Thermo) was used to remove excess dye and the labeling efficiency of the eluted solution was calculated. […]

CyaA = tested on: CyaA
Source text: as §1, §2

YcaO = assay: Fluorescence polarization assay, YcaO; type: binding, E. coli; conditions: 100 nM DyLight 549-labeled LfcinB; protein 0.025-0.4 µM; data not shown
Source text: as §1, §2

YqiA = assay: Fluorescence polarization assay, YqiA; type: binding, E. coli; conditions: 100 nM DyLight 549-labeled LfcinB; protein 0.025-0.4 µM; data not shown
Source text: as §1, §2

YjbM = assay: Fluorescence polarization assay, YjbM; type: binding, E. coli; conditions: 100 nM DyLight 549-labeled LfcinB; protein 0.025-0.4 µM; data not shown
Source text: as §1, §2

Adi = assay: Fluorescence polarization assay, Adi; type: binding, E. coli; conditions: 100 nM DyLight 549-labeled LfcinB; protein 0.025-0.4 µM; data not shown
Source text: as §1, §2

MalP = assay: Fluorescence polarization assay, MalP; type: binding, E. coli; conditions: 100 nM DyLight 549-labeled LfcinB; protein 0.025-0.4 µM; data not shown
Source text: as §1, §2

E. coli = conditions: cited from earlier work
Description: Natural antimicrobial peptides are pervasive in plants, insects and animals. […] It is possible that LfcinB served as nutrient for bacteria in the beginning of the assay. […] In the middle part (2–4 h) of the growth curves, the ...

## Lactoferricin B (Biotin-FKCRRWQWRMKKLGAPSITCVRRAF; ends and bridges not checked) [LfcinB]
NrdB
  binding affinity in chip assays: strong binding affinity with LfcinB
NrdF; 100 nM DyLight 549-labeled LfcinB, protein 0.025-0.4 µM, PBS, 0.005% BSA, 0.01% Triton X-100, room temperature, 1 h, Figure 5B
  degree of polarization vs BSA: higher polarization than the negative control
NrdF; NrdF, two-fold dilution 0.4 µM to 0.025 µM, 100 nM labeled LfcinB
  concentration dependence of polarization: increased with increasing concentrations of these 4 proteins
CyaA; 100 nM DyLight 549-labeled LfcinB, protein 0.025-0.4 µM, PBS, 0.005% BSA, 0.01% Triton X-100, room temperature, 1 h, Figure 5D
  degree of polarization vs BSA: higher polarization than the negative control
CyaA; CyaA, two-fold dilution 0.4 µM to 0.025 µM, 100 nM labeled LfcinB
  concentration dependence of polarization: increased with increasing concentrations of these 4 proteins
YcaO
  binding to YcaO: confirmed to bind to LfcinB
YqiA
  binding to YqiA: confirmed to bind to LfcinB
YjbM
  binding to YjbM: confirmed to bind to LfcinB
Adi
  binding to Adi: confirmed to bind to LfcinB
MalP
  binding to MalP: confirmed to bind to LfcinB
E. coli
  DNA synthesis at initiation of LfcinB into the medium: DNA synthesis was increased
E. coli; sublethal concentration
  DNA, RNA and protein synthesis of E. coli: inhibited DNA, RNA and protein synthesis of E. coli
  filamentation during an SOS-response: induced filamentation during an SOS-response
